15 compounds from US20240409585A1, “MACROCYCLIC IMMUNOMODULATORS” (priority 2021, published 2024) can be followed below.

Numbered stars: 1 amine (or outer) side, 2 acyl side, 3 side chain; on linkers, the order of the positions; unused ones are H or OH. Bridge positions count the residues as written; N and C are the ends. Square brackets hold non-standard residues; d marks the D form. Peptide text beside a SMILES is read from it. * marks the point of attachment. ξ: configuration not given here. Phe(4-COOH) = N[C@@H](Cc1ccc(C(=O)O)cc1)C(=O)O; dPhe(3,4-F2) = N[C@H](Cc1ccc(F)c(F)c1)C(=O)O; Bip = N[C@@H](Cc1ccc(-c2ccccc2)cc1)C(=O)O; Phe(3-Br) = N[C@@H](Cc1cccc(Br)c1)C(=O)O; Ala(2-furyl) = N[C@@H](Cc1ccco1)C(=O)O; Phe(3-Me) = Cc1cccc(C[C@H](N)C(=O)O)c1; 2Nal = N[C@@H](Cc1ccc2ccccc2c1)C(=O)O; Bta = N[C@@H](Cc1csc2ccccc12)C(=O)O; Nva(4-oxo) = CC(=O)C[C@H](N)C(=O)O; Val(3-OH) = CC(C)(O)[C@H](N)C(=O)O; X49 = O=C(C(N[*:1])C1CCOCC1)[*:2]; 4Pal = N[C@@H](Cc1ccncc1)C(=O)O; Cha = N[C@@H](CC1CCCCC1)C(=O)O; Ile(3ξ) = CCC(C)[C@H](N)C(=O)O; Thr(3ξ) = CC(O)[C@H](N)C(=O)O; Ahp(2) = CCCCC[C@H](N)C(=O)O; Carboxymethyl = O=C(O)C*; NMeA = CN[C@@H](C)C(=O)O; Dab = NCC[C@H](N)C(=O)O; Dap = NC[C@H](N)C(=O)O

The first assay deals with T1, PE-labeled human PD-L1-Ig binding to Jurkat cell line over-expressing human PD-1 (Jurkat-PD-1) (Homo sapiens, UniProt Q15116).
T1 construct: expressed in transfected cells; host or cells: Jurkat
T1 sequence (Q15116 25-288): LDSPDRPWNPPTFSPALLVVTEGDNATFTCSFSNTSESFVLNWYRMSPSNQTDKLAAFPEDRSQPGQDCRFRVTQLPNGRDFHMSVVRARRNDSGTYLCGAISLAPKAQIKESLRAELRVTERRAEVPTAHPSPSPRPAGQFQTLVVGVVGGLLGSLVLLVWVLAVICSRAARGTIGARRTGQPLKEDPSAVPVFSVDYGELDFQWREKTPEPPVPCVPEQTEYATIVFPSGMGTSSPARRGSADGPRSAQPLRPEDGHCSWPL
Briefly: Jurkat-PD-1 Cell Binding High-Content Screening Assay (CBA): Method 1. Particulars: Jurkat HPDL1 PD1 IC50 (uM) (Method 1).
`CCC(C)[C@@H]1NC(=O)[C@H](Cc2ccc(-c3ccccc3)cc2)NC(=O)[C@H](C(C)C)NC(=O)[C@H](Cc2cccc(C)c2)NC(=O)[C@H](CC(=O)O)NC(=O)[C@H](Cc2cccc(C)c2)NC(=O)[C@H](Cc2ccncc2)NC(=O)CSC[C@@H](C(=O)N[C@@H](CO)C(=O)O)NC(=O)[C@H](CO)NC(=O)[C@H](C(C)C)NC(=O)[C@H](CC2CCCCC2)NC(=O)[C@H](CCN)NC(=O)[C@@H](CC(C)C)NC(=O)[C@H](C)N(C)C1=O` (stereo partly drawn) [Compound 2233] ({CH2CO}-[4Pal][Phe(3-Me)]D[Phe(3-Me)]V[Bip][Ile(3ξ)][NMeA][dL][Dab][Cha]VSCS-OH; thioether N-14) displayed an IC50 of 0.02 µM.

Staying with this assay, now noted: Jurkat-hPD-1 cells, PE-labeled PD-L1-Ig 20 nM final; read-out: Jurkat HPDL1 PD1 IC50 (uM) (Method 1).
`CCCCC[C@@H]1NC(=O)[C@H](Cc2ccc(-c3ccccc3)cc2)NC(=O)[C@H](C(C)C)NC(=O)[C@H](Cc2c[nH]c3ccccc23)NC(=O)[C@H](CC(=O)O)NC(=O)[C@H](Cc2ccc(O)cc2)NC(=O)[C@H](CC(N)=O)NC(=O)CSC[C@@H](C(=O)N[C@@H](C)C(N)=O)NC(=O)[C@H](C(C)O)NC(=O)[C@H](C(C)C)NC(=O)[C@H](CC(C)C)NC(=O)[C@H](CCN)NC(=O)[C@@H](CC(C)C)NC(=O)[C@H](C)N(C)C1=O` (stereo partly drawn) [Compound 2083] ({CH2CO}-NYDWV[Bip][Ahp(2)][NMeA][dL][Dab]LV[Thr(3ξ)]CA-NH2; thioether N-14): the half-inhibitory concentration (IC50) was determined as 0.06 µM.
Same read-out and setting: under `CC(C)C[C@@H]1NC(=O)[C@H](CCN)NC(=O)[C@@H](CC(C)C)NC(=O)[C@H](C)N(C)C(=O)[C@H](CCCNC(=N)N)NC(=O)[C@H](Cc2ccc(-c3ccccc3)cc2)NC(=O)[C@H](C(C)C)NC(=O)[C@H](Cc2cccc(Br)c2)NC(=O)[C@H](CC(=O)O)NC(=O)[C@H](Cc2ccc(O)cc2)NC(=O)[C@H](CC(N)=O)NC(=O)CSC[C@@H](C(=O)N[C@@H](C)C(N)=O)NC(=O)[C@H]([C@@H](C)O)NC(=O)[C@H](C(C)C)NC1=O` [Compound 1217] ({CH2CO}-NYD[Phe(3-Br)]V[Bip]R[NMeA][dL][Dab]LVTCA-NH2; thioether N-14) stands 0.06 µM.
On the same count and under the same terms, under `CC(C)C[C@@H]1NC(=O)[C@H](Cc2c[nH]c3ccccc23)NC(=O)[C@H](CC(=O)O)NC(=O)[C@H](Cc2ccc(C(=O)O)cc2)NC(=O)[C@H](Cc2ccccc2)NC(=O)CSC[C@@H](C(=O)N[C@@H](C)C(N)=O)NC(=O)[C@H](CO)NC(=O)[C@H](C(C)C)NC(=O)[C@H](CC(C)C)NC(=O)[C@H](CCCCN)NC(=O)[C@@H](C)NC(=O)[C@H](C)N(C)C(=O)[C@H](CCC(=O)O)NC(=O)[C@H](Cc2ccc(-c3ccccc3)cc2)NC1=O` [Compound 1746] ({CH2CO}-F[Phe(4-COOH)]DWL[Bip]E[NMeA][dA]KLVSCA-NH2; thioether N-14) stands 0.02 µM; under `CC(C)C[C@@H]1NC(=O)[C@H](Cc2c[nH]c3ccccc23)NC(=O)[C@H](CC(=O)O)NC(=O)[C@H](Cc2ccc(O)cc2)NC(=O)[C@H](Cc2cnc[nH]2)NC(=O)CSC[C@@H](C(=O)N[C@@H](C)C(N)=O)NC(=O)[C@H](CO)NC(=O)[C@H](C(C)C)NC(=O)[C@H](CC(C)C)NC(=O)[C@H](CC(N)=O)NC(=O)[C@@H](C)NC(=O)[C@H](C)N(C)C(=O)[C@H](C(C)C)NC(=O)[C@H](Cc2ccc(-c3ccccc3)cc2)NC1=O` [Compound 1736] ({CH2CO}-HYDWL[Bip]V[NMeA][dA]NLVSCA-NH2; thioether N-14), 0.02 µM; under `CC(C)C[C@@H]1NC(=O)[C@H](Cc2c[nH]c3ccccc23)NC(=O)[C@H](CC(=O)O)NC(=O)[C@H](Cc2ccc3ccccc3c2)NC(=O)[C@H](Cc2ccccc2)NC(=O)CSC[C@@H](C(=O)N[C@@H](C)C(N)=O)NC(=O)[C@H](CO)NC(=O)[C@H](C(C)C)NC(=O)[C@H](CC(C)C)NC(=O)[C@H](CC(N)=O)NC(=O)[C@@H](C)NC(=O)[C@H](C)N(C)C(=O)[C@H](C(C)C)NC(=O)[C@H](Cc2ccc(-c3ccccc3)cc2)NC1=O` [Compound 1800] ({CH2CO}-F[2Nal]DWL[Bip]V[NMeA][dA]NLVSCA-NH2; thioether N-14), 0.18 µM.
The same measure, in the same setting: under `CC[C@H](C)[C@@H]1NC(=O)[C@H](Cc2ccc(-c3ccccc3)cc2)NC(=O)[C@H](C(C)C)NC(=O)[C@H](Cc2cccc(C)c2)NC(=O)[C@H](CC(=O)O)NC(=O)[C@H](Cc2ccncc2)NC(=O)[C@H](CN)NC(=O)CSC[C@@H](C(=O)N[C@@H](C)C(N)=O)NC(=O)[C@H]([C@@H](C)O)NC(=O)[C@H](C(C)C)NC(=O)[C@H](CC(C)C)NC(=O)[C@H](CCN)NC(=O)[C@@H](CC(C)C)NC(=O)[C@H](C)N(C)C1=O` [Compound 1544] ({CH2CO}-[Dap][4Pal]D[Phe(3-Me)]V[Bip]I[NMeA][dL][Dab]LVTCA-NH2; thioether N-14) stands 0.01 µM; under `CCC(C)[C@@H]1NC(=O)[C@H](Cc2ccc(-c3ccccc3)cc2)NC(=O)[C@H](CC(C)C)NC(=O)[C@H](Cc2c[nH]c3ccccc23)NC(=O)[C@H](CC(=O)O)NC(=O)[C@H](Cc2ccc(C(=O)O)cc2)NC(=O)[C@H](Cc2ccc(OCC(=O)O)cc2)NC(=O)CSC[C@@H](C(=O)N[C@@H](CC(N)=O)C(N)=O)NC(=O)[C@H](CCC(N)=O)NC(=O)[C@H](C(C)C)NC(=O)[C@H](CC2CCCCC2)NC(=O)[C@H](CCN)NC(=O)[C@@H](CC(C)C)NC(=O)[C@H](C)N(C)C1=O` (stereo partly drawn) [Compound 1925] ({CH2CO}-Y(Carboxymethyl)[Phe(4-COOH)]DWL[Bip][Ile(3ξ)][NMeA][dL][Dab][Cha]VQCN-NH2; thioether N-14), 0.03 µM.
Turning to `CC(=O)C[C@@H]1NC(=O)CSC[C@@H](C(=O)NCC(N)=O)NC(=O)[C@H](CO)NC(=O)[C@H](C(C)C)NC(=O)[C@H](CC(C)C)NC(=O)[C@H](CCCNC(=N)N)NC(=O)[C@H](Cc2csc3ccccc23)NC(=O)[C@H](C)N(C)C(=O)[C@H](CCCNC(=N)N)NC(=O)[C@H](Cc2ccc(-c3ccccc3)cc2)NC(=O)[C@H](C(C)C)NC(=O)[C@H](Cc2c[nH]c3ccccc23)NC(=O)[C@H](CC(=O)O)NC(=O)[C@H](Cc2ccc(O)cc2)NC1=O` [Compound 1027] ({CH2CO}-[Nva(4-oxo)]YDWV[Bip]R[NMeA][Bta]RLVSCG-NH2; thioether N-14), the IC50 was found to be 0.21 µM.
On the same count and under the same terms, under `CC(C)C[C@@H]1NC(=O)[C@H](CCCNC(=N)N)NC(=O)[C@@H](Cc2ccc(F)c(F)c2)NC(=O)[C@H](C)N(C)C(=O)[C@H](CCCNC(=N)N)NC(=O)[C@H](Cc2ccc(-c3ccccc3)cc2)NC(=O)[C@H](C(C)C)NC(=O)[C@H](Cc2c[nH]c3ccccc23)NC(=O)[C@H](CC(=O)O)NC(=O)[C@H](Cc2ccc(O)cc2)NC(=O)[C@H](Cc2ccccc2)NC(=O)CSC[C@@H](C(=O)N[C@@H](C)C(N)=O)NC(=O)[C@H]([C@@H](C)O)NC(=O)[C@H](C(C)C)NC1=O` [Compound 1103] ({CH2CO}-FYDWV[Bip]R[NMeA][dPhe(3,4-F2)]RLVTCA-NH2; thioether N-14) stands 0.69 µM; under `CCC(C)[C@@H]1NC(=O)[C@H](Cc2ccc(-c3ccccc3)cc2)NC(=O)[C@H](C(C)C)NC(=O)[C@H](Cc2c[nH]c3ccccc23)NC(=O)[C@H](CC(=O)O)NC(=O)[C@H](Cc2ccc(O)cc2)NC(=O)[C@H](Cc2ccco2)NC(=O)CSC[C@@H](C(=O)NC(C(N)=O)C2CCOCC2)NC(=O)[C@H](C(C)O)NC(=O)[C@H](C(C)(C)O)NC(=O)[C@H](CC2CCCCC2)NC(=O)[C@H](CC(N)=O)NC(=O)[C@@H](CC(C)C)NC(=O)[C@H](C)N(C)C1=O` (stereo partly drawn) [Compound 2176] ({CH2CO}-[Ala(2-furyl)]YDWV[Bip][Ile(3ξ)][NMeA][dL]N[Cha][Val(3-OH)][Thr(3ξ)]C[X49]-NH2; thioether N-14), 0.19 µM; under `CC(C)C[C@@H]1NC(=O)[C@H](Cc2c[nH]c3ccccc23)NC(=O)[C@H](CC(=O)O)NC(=O)[C@H](Cc2ccc(OCC(=O)O)cc2)NC(=O)[C@H](Cc2ccccc2)NC(=O)CSC[C@@H](C(=O)NCC(N)=O)NC(=O)[C@H](CO)NC(=O)[C@H](C(C)C)NC(=O)[C@H](CC(C)C)NC(=O)[C@H](CC(N)=O)NC(=O)[C@@H](CC(C)C)NC(=O)[C@H](C)N(C)C(=O)[C@H](C(C)C)NC(=O)[C@H](Cc2ccc(-c3ccccc3)cc2)NC1=O` [Compound 1526] ({CH2CO}-FY(Carboxymethyl)DWL[Bip]V[NMeA][dL]NLVSCG-NH2; thioether N-14), 0.01 µM.
On the same count and under the same terms, for `CC(C)C[C@@H]1NC(=O)[C@H](CCCCN)NC(=O)[C@@H](CC(C)C)NC(=O)[C@H](C)N(C)C(=O)[C@H](CCCNC(=N)N)NC(=O)[C@H](Cc2ccc(-c3ccccc3)cc2)NC(=O)[C@H](C(C)C)NC(=O)[C@H](Cc2c[nH]c3ccccc23)NC(=O)[C@H](CC(=O)O)NC(=O)[C@H](Cc2ccc(O)cc2)NC(=O)[C@H](CC(N)=O)NC(=O)CSC[C@@H](C(=O)N[C@@H](C)C(N)=O)NC(=O)[C@H]([C@@H](C)O)NC(=O)[C@H](C(C)C)NC1=O` [Compound 1269] ({CH2CO}-NYDWV[Bip]R[NMeA][dL]KLVTCA-NH2; thioether N-14) the value was 0.03 µM.
Still for that read-out and setting: under `CC(C)C[C@@H]1NC(=O)[C@H](CCCNC(=N)N)NC(=O)[C@H](Cc2csc3ccccc23)NC(=O)[C@H](C)N(C)C(=O)[C@H](CCCNC(=N)N)NC(=O)[C@H](Cc2ccc(-c3ccccc3)cc2)NC(=O)[C@H](C(C)C)NC(=O)[C@H](Cc2c[nH]c3ccccc23)NC(=O)[C@H](CC(=O)O)NC(=O)[C@H](Cc2ccc(O)cc2)NC(=O)[C@H](CCC(N)=O)NC(=O)CSC[C@@H](C(=O)NCC(N)=O)NC(=O)[C@H](CO)NC(=O)[C@H](C(C)C)NC1=O` [Compound 1028] ({CH2CO}-QYDWV[Bip]R[NMeA][Bta]RLVSCG-NH2; thioether N-14) stands 0.11 µM.
Regarding `CC(C)C[C@@H]1NC(=O)[C@H](CCN)NC(=O)[C@@H](CC(C)C)NC(=O)[C@H](C)N(C)C(=O)[C@H](CCCNC(=N)N)NC(=O)[C@H](Cc2ccc(-c3ccccc3)cc2)NC(=O)[C@H](C(C)C)NC(=O)[C@H](Cc2c[nH]c3ccccc23)NC(=O)[C@H](CC(=O)O)NC(=O)[C@H](Cc2ccc(O)cc2)NC(=O)[C@H](CCC(N)=O)NC(=O)CSC[C@@H](C(=O)N[C@@H](C)C(N)=O)NC(=O)[C@H]([C@@H](C)O)NC(=O)[C@H](C(C)C)NC1=O` [Compound 1056] ({CH2CO}-QYDWV[Bip]R[NMeA][dL][Dab]LVTCA-NH2; thioether N-14), the IC50 was determined as 0.06 µM.
